Experimental data taken from patent US11547681B2, “N-acylethanolamide derivatives and uses thereof” (ELIEM THERAPEUTICS, INC., priority 2016, dated 2023).

Experiment: Liver microsomal stability, mouse
Conditions: for microsomal CLint / half-life / half-life at 1 μM / Measured concentration of analyte PEA, 0 min / Measured concentration of analyte PEA, 10 min / Measured concentration of analyte PEA, 20 min / Measured concentration of analyte PEA, 30 min / Measured concentration of analyte PEA, 60 min / % Remaining of Initial, 0 min / % Remaining of Initial, 10 min / % Remaining of Initial, 20 min / % Remaining of Initial, 30 min / % Remaining of Initial, 60 min / microsomal CLint at 1 μM / Concentration, analyte PEA / % Remaining of Initial (n = 1): male; for microsomal CLint / half-life / half-life at 1 μM / % Remaining of Initial, 0 min / % Remaining of Initial, 10 min / % Remaining of Initial, 20 min / % Remaining of Initial, 30 min / % Remaining of Initial, 60 min / microsomal CLint at 1 μM / % Remaining of Initial (n = 1): microsomes; for Measured concentration of analyte PEA, 0 min / Measured concentration of analyte PEA, 10 min / Measured concentration of analyte PEA, 20 min / Measured concentration of analyte PEA, 30 min / Measured concentration of analyte PEA, 60 min / % Remaining of Initial, 0 min / % Remaining of Initial, 10 min / % Remaining of Initial, 20 min / % Remaining of Initial, 30 min / % Remaining of Initial, 60 min / Concentration, analyte PEA / % Remaining of Initial (n = 1): 1 μM
Protocol: (§1) Reaction mixture, minus cofactors, was prepared as described below. Test article was added into the reaction mixture at a final concentration of 1 μM. […] An aliquot of the reaction mixture (without cofactor) was equilibrated in a shaking water bath at 37° C. for 3 minutes. The reaction was initiated by the addition of cofactor, and the mixture was incubated in a shaking water bath at 37° C. Aliquots (100 μL) were withdrawn at 0, 10, 20, 30, and 60 minutes. Test article samples were immediately combined with 300 μL of ice-cold acetonitrile containing 1% formic acid. Control samples were immediately combined with 400 μL of ice-cold 50/50 acetonitrile (ACN)/dH2O containing 0.1% formic acid and internal standard to terminate the reaction. Samples were then mixed and centrifuged to precipitate proteins. Calibration standards were prepared in matched matrix. Samples and standards were assayed by LC-MS/MS using electrospray ionization for both dosed prodrug and expected drug (PEA). Analytical conditions are outlined in Appendix 8-1. Test article concentration at each time point was compared to test article concentration at time 0 to determine the percent remaining at each time point. Half-lives were calculated using GraphPad software, fitting to a single-phase exponential decay equation.
Reaction mixture, minus cofactors, was prepared as described below. Test article was added into the reaction mixture at a final concentration of 1 μM. […] An aliquot of the reaction mixture (without cofactor) was equilibrated in a shaking water bath at 37° C. for 5 minutes. Reaction was initiated by the addition of cofactor, and the mixture was incubated in a shaking water bath at 37° C. Aliquots (100 μL) were withdrawn at 0, 10, 20, 30, and 60 minutes. Test article samples were immediately combined with 300 μL of ice-cold acetonitrile containing 1% formic acid. Control samples were immediately combined with 400 μL of ice-cold 50/50 acetonitrile (ACN)/dH2O containing 0.1% formic acid and internal standard to terminate the reaction. Samples were then mixed and centrifuged to precipitate proteins. Calibration standards were prepared in matched matrix. Samples and standards were assayed by LC-MS/MS using electrospray ionization for both the dosed prodrug and the expected drug (PEA). Analytical conditions are outlined in Appendix 10-1. Test article concentration at each time point was compared to the test article concentration at time 0 to determine the percent remaining at each time point. Half-lives were calculated using GraphPad software, fitting to a single-phase exponential decay equation.
as §1, with “minutes. Reaction” for “minutes. The reaction”, “300 μL,” for “300 μL”, “Appendix 13-1.” for “Appendix 8-1.”
Reaction mixture, minus cofactors, was prepared as described below.

Row | Compound | Measured concentration of analyte PEA, 0 min (Beagle, dog, 0 min) [µM] | Measured concentration of analyte PEA, 10 min (Beagle, dog, 10 min) [µM] | Measured concentration of analyte PEA, 20 min (Beagle, dog, 20 min) [µM] | Measured concentration of analyte PEA, 30 min (Beagle, dog, 30 min) [µM] | Measured concentration of analyte PEA, 60 min (Beagle, dog, 60 min) [µM] | % Remaining of Initial, 0 min (Beagle, dog, 0 h) [%] | % Remaining of Initial, 10 min (Beagle, dog, 10 min) [%] | % Remaining of Initial, 20 min (Beagle, dog, 20 min) [%] | % Remaining of Initial, 30 min (Beagle, dog, 0.5 h) [%] | % Remaining of Initial, 60 min (Beagle, dog, 1 h) [%] | microsomal CLint at 1 μM (Beagle, dog) [µL/min/mg] | half-life at 1 μM (Beagle, dog, Half-life) [min] | Measured concentration of analyte PEA, 0 min (CD-1, mouse, 0 min) [µM] | Measured concentration of analyte PEA, 10 min (CD-1, mouse, 10 min) [µM] | Measured concentration of analyte PEA, 20 min (CD-1, mouse, 20 min) [µM] | Measured concentration of analyte PEA, 30 min (CD-1, mouse, 30 min) [µM] | Measured concentration of analyte PEA, 60 min (CD-1, mouse, 60 min) [µM] | % Remaining of Initial, 0 min (CD-1, mouse, 0 h) [%] | microsomal CLint at 1 μM (CD-1, mouse) [µL/min/mg] | half-life at 1 μM (CD-1, mouse, Half-life) [min] | further results
1 | C[C@]12CC[C@H]3[C@@H](CCC4=CC(=O)CC[C@@]43C)[C@@H]1CC[C@@H]2O [Testosterone, testosterone, reference compound] |  |  |  |  |  |  |  |  |  |  |  |  |  |  |  |  |  |  |  |  | Half-life (control compound, mouse liver microsomes): 2.1 min; microsomal CLint (Beagle, Control Compound, Dog liver microsomes): 41.9 µL/min/mg; microsomal CLint (Beagle, Control compound, Dog liver microsomes): 41.5 µL/min/mg; microsomal CLint (Beagle, Dog liver microsomes, control compound): 41.9 µL/min/mg; microsomal CLint (Beagle, control compound, dog liver microsomes): 59.3 µL/min/mg; half-life (Beagle, Half-life, Control Compound, Dog liver microsomes): 33 min; half-life (Beagle, Half-life, Control compound, Dog liver microsomes): 33 min; half-life at 1 μM (Beagle, Half-life, Dog liver microsomes): 33 min; half-life (Beagle, Half-life, control compound, dog liver microsomes): 23 min; microsomal CLint (CD-1, mouse, Control Compound, Mouse liver microsomes): 444 µL/min/mg; microsomal CLint (CD-1, mouse, Mouse liver microsomes, control compound): 190 µL/min/mg; microsomal CLint (CD-1, mouse, control compound, mouse liver microsomes): 674 µL/min/mg; half-life (CD-1, mouse, Half-life, Control Compound, Mouse liver microsomes): 3.1 min; half-life (CD-1, mouse, Half-life, Control compound, Mouse liver microsomes): 4.9 min; half-life at 1 μM (CD-1, mouse, Half-life, Mouse liver microsomes): 7.3 min
2 | CCCCCCCCCCCCCCCC(=O)NCCOC(=O)CCC(=O)OCC(COC(=O)CCC)OC(=O)CCC (centres unmarked) [Compound I-11] | 0.032 | 0.32 | 0.26 | 0.20 | 0.097 | 100 | 3.6 | <1.0 | <1.0 | <1.0 | 665 | 2.1 | 0.22 | 0.32 | 0.18 | 0.12 | 0.030 | 100 | 687 | 2 | % Remaining of Initial, 10 min (CD-1, mouse, 10 min): 3.2%; % Remaining of Initial, 20 min (CD-1, mouse, 20 min): <1.0%; % Remaining of Initial, 30 min (CD-1, mouse, 0.5 h): <1.0%; % Remaining of Initial, 60 min (CD-1, mouse, 1 h): <1.0%
3 | CCCCC/C=C\C/C=C\CCCCCCCC(=O)OCC(COC(=O)CCC(=O)OCCNC(=O)CCCCCCCCCCCCCCC)OC(=O)CCCCCCC/C=C\C/C=C\CCCCC (centres unmarked) [Compound I-13] |  |  |  |  |  |  |  |  |  |  | 36.2 | 38 |  |  |  |  |  |  | 29.1 | 48 | Concentration, analyte PEA (Beagle, dog, 0 min): 0 nM; Concentration, analyte PEA (Beagle, dog, 10 min): 0 nM; Concentration, analyte PEA (Beagle, dog, 20 min): 0 nM; Concentration, analyte PEA (Beagle, dog, 30 min): 0 nM; Concentration, analyte PEA (Beagle, dog, 60 min): 0 nM; % Remaining of Initial (n = 1) (Beagle, dog, 0 h): 100%; % Remaining of Initial (n = 1) (Beagle, dog, 10 min): 78%; % Remaining of Initial (n = 1) (Beagle, dog, 20 min): 76%; % Remaining of Initial (n = 1) (Beagle, dog, 0.5 h): 56%; % Remaining of Initial (n = 1) (Beagle, dog, 1 h): 32%; Concentration, analyte PEA (CD-1, mouse, 0 min): 0 nM; Concentration, analyte PEA (CD-1, mouse, 10 min): 0 nM; Concentration, analyte PEA (CD-1, mouse, 20 min): 0 nM; Concentration, analyte PEA (CD-1, mouse, 30 min): 0 nM; Concentration, analyte PEA (CD-1, mouse, 60 min): 0 nM; % Remaining of Initial (n = 1) (CD-1, mouse, 0 h): 100%; % Remaining of Initial (n = 1) (CD-1, mouse, 10 min): 69%; % Remaining of Initial (n = 1) (CD-1, mouse, 20 min): 75%; % Remaining of Initial (n = 1) (CD-1, mouse, 0.5 h): 54%; % Remaining of Initial (n = 1) (CD-1, mouse, 1 h): 44%
4 | CCCCCCCCCCCCCCCC(=O)NCCOC(=O)CCC [Compound I-2] | 0.23 | 0.48 | 0.38 | 0.29 | 0.17 | 100 | 5.4 | <1.0 | <1.0 | <1.0 | 581 | 2.4 | 0.48 | 0.34 | 0.19 | 0.12 | 0.023 | 100 | > 1380 | < 1 | % Remaining of Initial, 10 min (CD-1, mouse, 10 min): <1.0%; % Remaining of Initial, 20 min (CD-1, mouse, 20 min): <1.0%; % Remaining of Initial, 30 min (CD-1, mouse, 0.5 h): <1.0%; % Remaining of Initial, 60 min (CD-1, mouse, 1 h): <1.0%
5 | CCCCCCCCCCCCCCCC(=O)NCCOC(=O)CCC(=O)OCC(COC(=O)CCCCCCC)OC(=O)CCCCCCC (centres unmarked) [Compound I-3, PEA-Succinate-Glycerol-Di-Caprylic] | 0.00074 | 0.023 | 0.037 | 0.042 | 0.053 | 100 | 94 | 85 | 85 | 74 | < 23.1 | > 60 | 0.0079 | 0.025 | 0.025 | 0.042 | 0.025 | 100 | < 23.1 | > 60 | % Remaining of Initial, 10 min (CD-1, mouse, 10 min): 82%; % Remaining of Initial, 20 min (CD-1, mouse, 20 min): 83%; % Remaining of Initial, 30 min (CD-1, mouse, 0.5 h): 60%; % Remaining of Initial, 60 min (CD-1, mouse, 1 h): 70%; microsomal CLint at 1 μM (CD-1, mouse, calculated value in parentheses): 13.8 µL/min/mg; half-life at 1 μM (CD-1, mouse, Calculated half-life (in parentheses)): 100 min
